Data from patent publication US20020150990A1, “Hepatitis C virus peptides” (priority 1992, published 2002).
Ends that are not written are not given here.

Key:
antibodies against HCV [1] = assay: Replacement Net analysis of the core immunodominant epitope YLLPRR with 12 paid donor human sera; format: binding; conditions: n = 12 sera; for Frequency of relative signal strength: All: acceptable when signal 80% of the parent sequence or greater; for Frequency of relative signal strength: 2nd-5th / Frequency of relative signal strength: 6th-10th / Frequency of relative signal strength: Below 10th / Frequency of relative signal strength: Highest: rank of replacement residue at that position
Protocol: The Replacement Net Method was used to sequentially replace each of the constituent amino acid residues in the epitope with each of the other genetically encoded amino acids.
For Replacement Net analysis, a parent sequence is entered into the Epitope Mapping Software provided by Cambridge Research Biochemicals, and a set of replacement peptides is generated. This process was performed for the six amino acid residue immunodominant core epitope of HCV. The peptides were synthesized on polypropylene pins as directed by the manufacturer (CRB). The Assay format was identical to that followed for PEPSCAN above.
The Replacement Net of the core immunodominant epitope sequence Tyr-Leu-Leu-Pro-Arg-Arg (YLLPRR) (SEQ ID NO: 1 and 2) with the 12 paid donor human sera as described above was considered.
For each position within the epitope, the frequency of each replacement residue as an acceptable replacement for the parent sequence is given. Replacement residues were deemed acceptable when the signal of the new peptide was 80% of the parent sequence or greater.
The residue in italics is the parent sequence.

antibodies against HCV [2] = assay: PEPSCAN analysis of overlapping octameric peptides of the HCV core protein N-terminal region with HCV-seropositive sera; format: binding, human; conditions: 16 sera assayed by PEPSCAN
From the text: The N-terminal 97 amino acid residues of HCV Core protein SEQ ID NO: 8 was mapped with PEPSCAN analysis. This process involved the serological analysis of sequentially overlapping peptides which spanned the region of interest, to identify epitopic domains. Ninety overlapping octameric peptides were synthesized on polypropylene pin supports according to the manufacturer's instructions (Cambridge Research Biochemicals), such that each peptide overlapped with the preceding sequence by the seven N-terminal residues, and with the subsequent peptide by the seven C-terminal residues. Serum or IgG purified from the serum of individuals confirmed to be seropositive for HCV were used to screen the peptides.
The assay procedure followed was performed basically as described in the manufacturers instruction manual. The time and temperature of the test antibody incubation differed from that prescribed, thereby decreasing the time taken for each assay.
Sera: A total of 16 sera were assayed by PEPSCAN. These consisted of 12 sera from paid U.S. Donors which were identified as being positive for antibodies against HCV in routine screening at the site of donation. The remaining four sera were from patients diagnosed as having non-A non-B hepatitis, and which were subsequently shown to contain antibodies to HCV. Sera were screened either as the crude serum fraction, or as a caprylic acid preparation. Caprylic acid purification of IgG from the sera was performed as described by Stienbuch and Audran (1969) Arch. Biochem. Biophys. 134, 279-284.
Assay: The assay format involves sequentially incubating the various pins in microwell plates containing blocking, test antibody, conjugate, and substrate solutions. The immune complex builds up on the pin with the enzyme labelled conjugate being immobilized on the bound anti-peptide antibody from the test serum. When the pin is then immersed in substrate, the enzyme brings about the colour change which is used to quantify the amount of anti-peptide antibody bound.
Blocking: Pins are immersed in 200 μl of Supercocktail (1% Ovalbumin, 1% bovine serum albumin in 0.15M phosphate buffered saline pH 7.2—0.1% Tween 20) and left to stand at room temperature for 1 hour.
Test antibody: The test antibody is diluted between 1/200 (IgG) and 1/1000 (serum) in supercocktail. The pins are then stood in this solution (175 μl/well) at 37° C. for 1 hour. After this incubation the pins are washed four times in 0.15M phosphate buffered saline pH 7.2—0.05% Tween 20, each at room temperature for 10 minutes.
Conjugate: Rabbit anti-human IgG coupled to horseradish peroxidase is diluted 1/1000 in supercocktail. The peptide bearing pins are then stood in this solution at room temperature for 1 hour. Once again the pins are then washed four times as above.
Substrate: The substrate solution is made up fresh for each assay. To 100 ml of 0.1M phosphate, 0.08M citrate buffer pH 4.0 is dissolved 50 mg of 2,2′-AZINO-bis (3-ethylbenzthiazo-linsulphonic acid (ABTS) and 0.3 μl/ml 30% hydrogen peroxide is added. The pins are immersed in the wells containing substrate solution (150 μl/well) and incubated at room temperature in the dark. Once sufficient colour has developed the reaction is stopped by removing the pins. The plates are then read immediately in a spectrophotometric plate reader at a wavelength of 405 nm. The absorbance values are then plotted against pin number. The epitopic domains are then defined as the continuous sequence of amino acids common to all positive pins in the domain i.e.

[3] = listed as 2-Leucine L, epitope position 2-Leucine, residue L
[4] = listed as 3-Leucine L, epitope position 3-Leucine, residue L
[5] = listed as 5-Arginine R, epitope position 5-Arginine, residue R
[6] = listed as 6-Arginine R, epitope position 6-Arginine, residue R

## YLLPRR [YLLPRR]
Antibodies against HCV [1]; listed as 1-Tyrosine Y
  Frequency of relative signal strength: All: 11
  Frequency of relative signal strength: 2nd-5th: 3
  Frequency of relative signal strength: 6th-10th: 5
  Frequency of relative signal strength: Below 10th: 1
  Frequency of relative signal strength: Highest: 2
Antibodies against HCV [1]; [3]
  Frequency of relative signal strength: All: 8
  Frequency of relative signal strength: 2nd-5th: 2
  Frequency of relative signal strength: 6th-10th: 3
  Frequency of relative signal strength: Below 10th: 2
  Frequency of relative signal strength: Highest: 1
Antibodies against HCV [1]; [4]
  Frequency of relative signal strength: All: 3
  Frequency of relative signal strength: 2nd-5th: 0
  Frequency of relative signal strength: 6th-10th: 1
  Frequency of relative signal strength: Below 10th: 0
  Frequency of relative signal strength: Highest: 2
Antibodies against HCV [1]; listed as 4-Proline P
  Frequency of relative signal strength: All: 5
  Frequency of relative signal strength: 2nd-5th: 1
  Frequency of relative signal strength: 6th-10th: 1
  Frequency of relative signal strength: Below 10th: 0
  Frequency of relative signal strength: Highest: 3
Antibodies against HCV [1]; [5]
  Frequency of relative signal strength: All: 10
  Frequency of relative signal strength: 2nd-5th: 2
  Frequency of relative signal strength: 6th-10th: 1
  Frequency of relative signal strength: Below 10th: 7
  Frequency of relative signal strength: Highest: 0
Antibodies against HCV [1]; [6]
  Frequency of relative signal strength: All: 11
  Frequency of relative signal strength: 2nd-5th: 1
  Frequency of relative signal strength: 6th-10th: 5
  Frequency of relative signal strength: Below 10th: 3
  Frequency of relative signal strength: Highest: 2
Antibodies against HCV [2]
  Detection of the epitope by sera: detected to a greater or lesser extent by all of the sera tested
